Holding throughout (test): inhibition of tumour cell growth, NCI panel, 48 h
Assay [1] deals with ACHN renal.
Assay [2] relates to COLO 205 colon.
Assay [3] deals with EKVX NSCLC.
In assay [4] the test system is HCT-116 colon.
The test system of assay [5] is IGROV1 ovarian.
For assay [6], the system named is KM12 colon.
Assay [7] concerns LOX IMVI melanoma.
Assay [8] deals with M14 melanoma.
Assay [9] deals with MALME-3M melanoma.
For assay [10], the system named is MCF7 breast.
The subject of assay [11] is NCI-H23 lung.
Assay [12] concerns NCI-H460 lung.
Assay [13] deals with NCI-H522 lung.
Assay [14] concerns OVCAR-4 ovarian.
In assay [15] the test system is SK-MEL-5 melanoma.
Assay [16] deals with SN12C renal.
Assay [17] deals with SR leukemia.
In assay [18] the test system is UO-31 renal.

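Each compound was tested at five concentrations against cells in 96-well plates for 48 hours. TGI marks complete inhibition of growth.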 Peptide text beside a SMILES is read from it. * marks the point of attachment. Cbz = O=C(OCc1ccccc1)* A value given as a limit tells only on which side of the number the result lay.

As for `CCCCCCCCCCCCCCCCCCOC(COP(=O)(O)OCC1OC(n2cc(F)c(=O)[nH]c2=O)CC1O)COP(=O)(O)OCC1OC(n2ccc(N)nc2=O)C(O)C1O` (stereo not given), the TGI in assay [1] is > 100 µM; in assay [2] it was > 72.9 µM; in assay [3] it was > 100 µM; in assay [4] it was > 100 µM; in [5] it was > 100 µM; in assay [6] it was > 100 µM. The TGI in assay [7] was > 100 µM; in assay [8], 62.5 µM; in assay [9], > 100 µM; in assay [10], > 100 µM; in [11], > 100 µM; in [12], > 65.3 µM. Moreover, the TGI in assay [13], in assay [14], in assay [15], in [16], in [17] and in assay [18] was > 100 µM each time.

For the molecule `O=C(O)c1ccc(C2=Nc3cccc4cccc(c34)N2)cc1`, the TGI in assay [1], in assay [2], in assay [3], in [4], in assay [5] and in assay [6] was > 100 µM in each case. For the same molecule, the TGI in [7], in [8], in [9], in assay [10], in [11] and in assay [12] was > 100 µM in each case. Further, the TGI in [13], in assay [14], in assay [15], in assay [16], in assay [17] and in assay [18] was > 100 µM each time.

`CCOC(=O)CCC(NC(=O)CNC(=O)CNC(=O)C(CCC(=O)OCC)NC(=O)C(CCC(=O)OCC)NC(=O)C(CCC(=O)OCC)NC(=O)OCc1ccccc1)C(=O)NC(CCC(=O)OCC)C(=O)NC(CCC(=O)OCC)C(=O)OCC` (stereo not given) (Cbz-E(OEt)E(OEt)E(OEt)GGE(OEt)E(OEt)E(OEt)-OEt; configuration not given here): the TGI in [1], in [2], in assay [3], in [4], in assay [5] and in assay [6] was > 75 µM each time. The TGI in assay [7], in [8], in assay [9], in [10], in [11] and in assay [12] was > 75 µM throughout. Further, the TGI in assay [13], in assay [14], in [15], in [16], in assay [17] and in [18] was > 75 µM each time.

As for `C/C(=N\NC(N)=S)C(CN1CCCCC1)C(C1=C(O)c2ccccc2OC1)c1ccccc1` (stereo not given), the TGI in [1], in assay [2], in assay [3], in assay [4], in assay [5] and in assay [6] was > 100 µM in each case. Besides, the TGI in [7], in assay [8], in assay [9], in [10], in assay [11] and in [12] was > 100 µM in each case. The TGI in assay [13], in assay [14], in [15], in [16], in assay [17] and in assay [18] was > 100 µM throughout.

Turning to `Oc1cc(F)cc2cccnc12`, the TGI in assay [1] was > 92.1 µM; in [2] it was > 53.4 µM; in assay [3], > 100 µM; in assay [4], > 20.9 µM; in assay [5], 3.99 µM; in assay [6], > 100 µM. For the same molecule, the TGI in [7] was 29.1 µM; in assay [8], 22.1 µM; in assay [9] it was > 100 µM; in [10], > 39.7 µM; in assay [11] it was 18.2 µM; in assay [12], 29.3 µM. The TGI in assay [13] was 3.16 µM; in assay [14], > 100 µM; in assay [15], 13.4 µM; in [16] it was > 94.3 µM; in assay [17] it was 2.86 µM; in [18], > 100 µM.

`c1cc2nnc1SCCSCCCSCCS2`: the TGI in assay [1], in assay [2], in assay [3], in assay [4], in assay [5] and in [6] was > 100 µM each time. The TGI in assay [7], in assay [8], in [9], in assay [10], in [11] and in [12] was > 100 µM in each case. The TGI in assay [13], in [14], in assay [15], in assay [16], in [17] and in [18] was > 100 µM each time.

Take `N#CC(C#N)=C(N)/C(C#N)=C/c1ccc(O)c(O)c1`: the TGI in assay [1], in [2], in assay [3], in assay [4], in [5] and in assay [6] was > 100 µM in each case. For the same molecule, the TGI in [7], in assay [8], in assay [9], in [10], in [11] and in assay [12] was > 100 µM each time. Also, the TGI in assay [13], in assay [14], in assay [15], in assay [16], in assay [17] and in assay [18] was > 100 µM throughout.

On to `CCOC(=O)/C=C(/C(=O)OCC)n1cc(C)c(=O)[nH]c1=O`, for which the TGI was determined as 7.51 µM in assay [1]; 4.07 µM in assay [2]; 15.6 µM in [3]; 5.74 µM in [4]; 12.9 µM in [5]; 29 µM in assay [6]. In addition, the TGI in [7] is 5.94 µM; in assay [8] it was 3.91 µM; in assay [9] it was 4.48 µM; in assay [10] it was 12.7 µM; in assay [11] it was 18.3 µM; in assay [12] it was 29.4 µM. Further, the TGI in [13] is 2.14 µM; in assay [14] it was > 32.2 µM; in assay [15], 21.1 µM; in [16], 12.3 µM; in assay [17], 5.24 µM; in [18] it was 23.5 µM.

Consider `Oc1c(O)c(Cc2ccccc2)c(Cc2ccccc2)c(Cc2ccccc2)c1Cc1ccccc1`, for which the TGI in [1], in assay [2], in assay [3], in [4], in [5] and in assay [6] was > 10 µM throughout. In addition, the TGI in assay [7], in assay [8], in [9], in [10], in assay [11] and in assay [12] was > 10 µM each time. Also, the TGI in [13], in assay [14], in assay [15], in [16], in assay [17] and in assay [18] was > 10 µM each time.

On to `O=C1C2CCCCC2C(=O)N1n1c(Cc2ccccc2)n[nH]c1=O` (stereo not given), for which the TGI in assay [1], in assay [2], in assay [3], in assay [4], in assay [5] and in assay [6] was > 100 µM in each case. Moreover, the TGI in assay [7], in assay [8], in assay [9], in assay [10], in assay [11] and in assay [12] was > 100 µM in each case. Besides, the TGI in [13], in assay [14], in [15], in [16], in [17] and in assay [18] was > 100 µM throughout.

Take `Cc1cc(=O)[nH]c(Sc2ccc([N+](=O)[O-])cc2[N+](=O)[O-])n1`: the TGI in [1] was 38.4 µM; in assay [2], 15.7 µM; in assay [3] it was > 57.2 µM; in [4], > 34.6 µM; in assay [5] it was > 100 µM; in [6], > 67.4 µM. Further, the TGI in [7] was 8.67 µM; in assay [8], 32.3 µM; in assay [9], 35.7 µM; in assay [10], 64.2 µM; in [11] it was 41.1 µM; in assay [12], > 59.5 µM. Besides, the TGI was 22.9 µM in assay [13]; > 56.1 µM in [14]; 31.3 µM in assay [15]; 28.3 µM in assay [16]; > 100 µM in [17]; 37.1 µM in assay [18].

Take `Cc1cc(=O)[nH]c(S(=O)(=O)NC(=O)Nc2cccc(Cl)c2)n1`: the TGI in [1] is > 100 µM; in [2] it was > 100 µM; in assay [3], > 100 µM; in assay [4], > 100 µM; in [5], > 100 µM; in assay [6] it was 32.3 µM. Also, the TGI in assay [7], in [8], in assay [9], in assay [10], in [11] and in [12] was > 100 µM throughout. The TGI in assay [13] is > 100 µM; in [14], > 41.7 µM; in assay [15], > 100 µM; in assay [16], > 100 µM; in [17], > 100 µM; in assay [18], 13.9 µM.

Take `O=C(/C=C/c1ccc(O)c(O)c1)O[C@H]1CCCC[C@@H]1OC(=O)/C=C/c1ccc(O)c(O)c1`: the TGI in assay [1] came to 38.3 µM; in assay [2], 56.2 µM; in [3], 53.8 µM; in assay [4], 19 µM; in assay [5], 55 µM; in assay [6], 73.3 µM. The TGI was 17 µM in assay [7]; 77.9 µM in [8]; 32.6 µM in assay [9]; 70.2 µM in [10]; 33.7 µM in assay [11]; > 100 µM in assay [12]. Moreover, the TGI in assay [13] is 20.8 µM; in assay [14], > 100 µM; in assay [15], 21.4 µM; in assay [16], 50.1 µM; in assay [17], > 100 µM; in assay [18], 27.8 µM.

Regarding `Clc1ccc(C2=Cc3nc2c(-c2ccccc2)c2ccc([nH]2)c(-c2ccccc2)c2nc(c(-c4ccccc4)c4ccc([nH]4)c3-c3ccccc3)C=C2)cc1`, the TGI in assay [1], in assay [2], in [3], in assay [4], in assay [5] and in assay [6] was > 62.5 µM throughout. For the same molecule, the TGI in assay [7], in assay [8], in [9], in assay [10], in assay [11] and in [12] was > 62.5 µM each time. The TGI in assay [13], in assay [14], in [15], in [16], in [17] and in assay [18] was > 62.5 µM in each case.

As to `C/C=C/C(O)P(=O)(OC)OC` (stereo not given), the TGI turned out to be 1.25 µM in [1]; 0.366 µM in assay [2]; 1.51 µM in assay [3]; 0.835 µM in [4]; 1.01 µM in [5]; 0.936 µM in assay [6]. The TGI in assay [7] amounted to 0.392 µM; in assay [8], 0.463 µM; in assay [9] it was 1.17 µM; in [10], 1.01 µM; in assay [11], 1.2 µM; in [12], 0.93 µM. In addition, the TGI in assay [13] is 0.664 µM; in assay [14], 1.51 µM; in assay [15], 0.483 µM; in [16], 1.79 µM; in assay [17], > 100 µM; in assay [18], 0.334 µM.

Source of the values: PubChem BioAssay (NCI).
